Test results taken from patent US20240138406A1, “ANTIMICROBIAL PEPTIDE SCYAMPCIN44-63 AND APPLICATION THEREOF” (Xiamen University, priority 2021, published 2024).
No end group written: not given here.

How the values were obtained:
[1] = system: Candida albicans CGMCC 2.2411; details: CGMCC 2.2411, 24 h
[2] = system: Pseudomonas aeruginosa QZ18071; details: QZ18071, 24 h
[3] = system: Acinetobacter baumannii QZ20141; details: QZ20141, 24 h
[4] = system: Shigella flexneri CGMCC 1.1868; details: 24 h
Escherichia coli QZ18109 = details: QZ18109, 24 h
[5] = system: Acinetobacter baumannii CGMCC 1.6769; details: CGMCC 1.6769, 24 h
[6] = system: Escherichia coli CGMCC 1.2389; details: CGMCC 1.2389, 24 h
[7] = system: Staphylococcus aureus QZ19131; details: QZ19131, 24 h
[8] = system: Fusarium graminearum CGMCC 3.4521; details: Filamentous fungi, incubated 24 hours
[9] = system: epithelioma papulosum cyprini (EPC) cells; type: cell-based
Experimental: (§1) IV. Cytotoxicity of the […]44-63 is measured and evaluated by using 3-(4,5-dimethylthiazol-2-yl)-5-(3-carboxymethoxyphenyl)-2-(4-sulfophenyl)-2H-tetrazolium (MTS) 1. Human embryonic kidney 293T (HEK-293T) cells and epithelioma papulosum […] (EPC) cells are selected to assess the cytotoxicity of the […]44-63. […] HEK-293T cells are incubated in a cell incubator with 5% CO2 at 37° C., and EPC cells are incubated in a cell incubator with 5% CO2 at 28° C. (2) 50 μL of medium is carefully sucked out, fresh media with or without different concentrations of the […]44-63 are respectively added to a corresponding well, put in a corresponding cell condition, and incubated for another 24 hours while leaving to stand. (3) 20 μL of an MTS-Phenazinemethosulfate (PMS) mixed solution is added and incubated for 4 hours, absorbance of each well is measured at OD492 nm in a microplate reader, and cell viabilities are calculated.

[10] = system: Human embryonic kidney 293T (HEK-293T) cells; type: cell-based
Experimental: as §1

[11] = system: Bacillus cereus CGMCC 1.3760; details: CGMCC 1.3760, 24 h
[12] = system: Cryptococcus neoformans CGMCC 2.1563; details: CGMCC 2.1563, 24 h
[13] = system: Enterococcus faecalis QZ19138; details: QZ19138, 24 h
[14] = system: Enterococcus faecium CGMCC 1.131; details: CGMCC 1.131, 24 h
[15] = system: Fusarium solani CGMCC 3.584; details: 24 h
[16] = system: Pseudomonas aeruginosa CGMCC 1.1785; details: CGMCC 1.1785, 24 h
[17] = system: Staphylococcus aureus CGMCC 1.2465; details: CGMCC 1.2465, 24 h
[18] = system: Listeria monocytogenes CGMCC 1.10753; details: CGMCC 1.10753, 24 h
[19] = system: Enterococcus faecium QZ18080; details: QZ18080, 24 h
[20] = system: Klebsiella pneumoniae QZ18106; details: QZ18106, 24 h

GKKKKRNMMKTKEPGIIFFF-NH2 [Scyampcin44-63]
no cytotoxicity: Cytotoxicity (cell viability, MTS) [9] | Cytotoxicity (cell viability, MTS) [10]
0 to 3 µM: MBC [4] | MBC (Escherichia coli QZ18109) | MBC [5] | MBC [6] | MBC [12] | MBC [14] | MBC [18] | MBC [19]
6 to 12 µM: MBC [2] | MBC [16]
3 to 6 µM: MBC [1] | MBC [3] | MBC [7] | MBC [8] | MBC [11] | MBC [13] | MBC [15] | MBC [17] | MBC [20]
